Experimental data as given in US20250205304A1, “CD300LD INHIBITOR AND USE THEREOF IN THE PREPARATION OF TUMOR IMMUNOTHERAPY PRODUCTS” (FUDAN UNIVERSITY, priority 2021, published 2025).

Assays:
PMN-MDSC [1] = assay: T cell proliferation inhibition assay of PMN-MDSC; format: cell-based, mice
Experimental: 6-4) T cell proliferation assay: spleens of OT-1 mice were isolated, single-cell suspensions in PBS (5×10^7 cells/ml) were prepared, and CTV dye with a final concentration of […] was added to obtain a mixture. The mixture was incubated in a 37° C. water bath for 20 minutes, added with 5 times the volume of ice pre-cooled RPMI medium (RPMI-1640+10% FBS), mixed by inversion, stood at room temperature for 5 minutes, centrifuged for 5 minutes at 400 g, and then resuspended in RPMI medium (1×10^6 cells/ml). 80 μl of CTV-labeled cells was added with 40 μl of OVA peptide at a concentration of 100 ng/ml, and then supplemented with 80 μl of RPMI medium. The solution was added to the wells of a 96-well U bottom plate and incubated at 37° C. in a carbon dioxide incubator, and then antibody labeling and flow assay were carried out 48-72 hr later.
6-5) T cell proliferation inhibition assay of PMN-MDSC: spleens of B16 tumor-bearing mice were isolated, single-cell suspensions were prepared and labeled with antibodies, and PMN-MDSC cells (CD45^+/CD11b^+/Lying6G^+) were sorted by flow cytometry and resuspended in RPMI medium (1×10^6 cells/ml). 80 μl of CTV-labeled cells in […]) was added with 40 μl of OVA peptide at a concentration of 100 ng/ml, PMN-MDSC cells, and culture medium. […]

B16 tumor = B16 tumor model with intraperitoneal Tasquinimod; format: in vivo, mice; conditions: for tumor growth: 20 μg/mouse intraperitoneally
Experimental: 7-2) Tumor model: B16 cells (1.5×10^5 cells/mouse) were inoculated into mice subcutaneously, and 20 μg of Tasquinimod/mouse was injected intraperitoneally on day 2. Tumor size was measured every 2-3 days, and tumor growth curves were plotted. Tumors were isolated from mice on day 19, and the percentage of immune cells was determined by flow analysis.

PMN-MDSC [2] = assay: PMN-MDSC in vitro cell migration assay (Transwell); format: cell-based, mice; conditions: KO PMN-MDSCs, 2 hr
Experimental: 6-2) PMN-MDSC in vitro cell migration assay (Transwell): single-cell suspensions were prepared from isolated spleens of tumor-bearing mice and labeled with antibodies, and PMN-MDSC cells (CD45+/CD11b+/Ly6G+) were sorted. 10^5 PMN-MDSC cells were added to the upper layer of Transwell and then placed in a 37° C. incubator for 2 hr, and then the number of PMN-MDSC cells in the lower layer was analyzed by flow assay to calculate the migration ratio of the cells.
7-1) PMN-MDSC in vitro cell migration assay (Transwell): spleens of B16 tumor-bearing mice were isolated, single-cell suspensions were prepared and labeled with antibodies, and PMN-MDSC cells (CD45+/CD11b+/Lying6G+) were sorted by flow cytometry. 10^5 PMN-MDSC cells were added to the upper layer of Transwell and then placed in a 37° C. incubator, and then S100A8/A9 inhibitor (Tasquinimod) or DMSO control with a final concentration of 1 μg/ml was added, the number of PMN-MDSC cells in the lower layer was analyzed by flow-assay after 2 hr, and the percentage of cell migration was calculated.

COc1cccc2c1c(O)c(C(=O)N(C)c1ccc(C(F)(F)F)cc1)c(=O)n2C [Tasquinimod]
inhibitory effect of PMN-MDSCs on T cell proliferation (PMN-MDSC [1]; KO PMN-MDSCs): little effect
inhibitory effect of PMN-MDSCs on T cell proliferation (PMN-MDSC [1]; WT PMN-MDSCs): significantly reduced the inhibitory effect
tumor growth (B16 tumor; CD300LD KO mice): barely inhibited tumor growth
tumor growth (B16 tumor; WT mice): inhibited tumor growth
proportion of intratumoral PMN-MDSCs (B16 tumor; tumors isolated on day 19, WT and KO mice): consistent with the changes of tumors

B1: S100A8/A9 proteins: S100A8/A9 proteins added in the in vitro migration assay (protein, UniProt P05109 1-93; P06702 1-114, looked up)
Protein S100-A8: MLTELEKALNSIIDVYHKYSLIKGNFHAVYRDDLKKLLETECPQYIRKKGADVWFKELDINTDGAVNFQEFLILVIKMGVAAHKKSHEESHKE
Protein S100-A9: MTCKMSQLERNIETIINTFHQYSVKLGHPDTLNQGEFKELVRKDLQNFLKKENKNEKVIEHIMEDLDTNADKQLSFEEFIMLMARLTWASHEKMHEGDEGPGHHHKPGLGEGTP
in vitro migration ability of PMN-MDSC (PMN-MDSC [2]): enhance the weakened migration ability
